Source: US5037812A, “Tumor cell growth-inhibiting pharmaceutical compositions containing phosphino-hydrocarbon-gold, silver or copper complexes” (priority 1986, dated 1991)
pIC50: −log10 of the molar value. Values joined by “and” are separate entries in the source; they are usually repeats but may differ in a detail not shown here. Equal values may be shown once.

Assays:
B16 melanoma cells = assay: B16 melanoma cell assay, clonogenic capacity in vitro after two-hour exposure; format: cell-based; settings: 2-hour exposure; read-out: IC50: concentration which inhibits cloning efficiency of B16 melanoma cells by 50%
Method: The B16 melanoma cell assay measures the ability of a compound to inhibit the clonogenic capacity of cells in vitro following a two-hour exposure to the compound.
B16 melanoma (highly metastatic subline, F10) are used and maintained as monolayer cultures in Minimal Essential Media (Grand Island Biological Col., Grand Island, N.Y.) supplemented with 10% calf serum, 1% antibiotics in a 5% CO2 humidified incubator at 37° C. Asynchronous populations of cells are harvested and replated to 5000 cells/plate in sterile 60 mm×15 mm petri plates. Plates are incubated overnight to allow attachment of the cells to the plate. Cells are treated with a Formula (I) or Formula (II) compound/under sterile conditions, allowed to react for 2 hours followed by aspiration of medium. Plates are washed one time with 5 ml of phosphate buffered saline (PBS), followed by the addition of 5 ml of fresh medium. Plates are incubated for 5 days at 37° C. in a CO2 incubator. Viability is measured by the ability of a cell to form a colony of greater than 50 cells. Colonies are fixed with 0.5% crystal violet in 95% ethanol. Plates are dried and counted with a Biotran III Automatic Count Totalizer (New Brunswick Scientific Co., Edison, N.J.). Mean and standard deviation of triplicate samples are determined for each drug concentration. The data are analyzed plotting the log of the survival fraction (number of colonies in drug treated plates/number of colonies in controls) versus the drug concentration.
^a Concentration which inhibits cloning efficiency of B16 melanoma
cells by 50% on a 2hour exposure

[1] = system: HT-29 human colon carcinoma cells; assay: HT-29 human colon carcinoma cell killing in vitro; format: cell-based; settings: 2-hour exposure
B16 melanoma = assay: in vivo ip B16 melanoma assay; design: species or system mice (B6D2F1); settings: ip qDX10
Method: Daily treatment is begun 24 hours after tumor implantation and is continued daily for ten (10) days. The route of drug administration is ip. The mice are monitored daily for survival for sixty (60) days. Antitumor activity is assessed by prolongation of median survival time. An ILS of ≥25% indicates activity in this tumor model.
^(b) maximally tolerated dose for B6D2F1 mice on an ip qDX10
^(c) maximum increase in lifespan produced in mice bearing ip B16

[2] = system: M5076 reticulum cell sarcoma; assay: ip M5076 reticulum cell sarcoma in mice; format: in vivo, mice (B6D2F female)
Method: Another tumor model used for evaluation of tumor growth inhibiting drugs is intraperitoneally implanted M5076 reticulum cell sarcoma in mice. […] Drugs are administered ip. Daily treatment is begun 24 hours after implantation and is continued for ten days. The treatment regimen for M5076 is more prolonged than for P388 because of the slower growth rate and longer control survival time of the M5076 tumor. Compounds of Formula (I) and Formula (II) were evaluated in this assay. An evaluation of several compounds of Formula (I) in the M5076 reticulum cell sarcoma assay at their maximally tolerated dose (MTD) is set forth in Table III. An ILS of ≥25% indicates activity in this tumor model.
^(b) maximally tolerated dose for B6D2F female mice on an ip qDX10
^(c) maximum increase in lifespan produced in mice bearing ip M5076

P388 leukemia = assay: ip P388 leukemia mouse model; format: in vivo, mice (B6D2F1)
Method: This tumor system is widely accepted as an antitumor agent screening tool because it is sensitive to virtually all of the clinically active antineoplastic agents; quantitative and reproducible; amenable for large-scale screening; and predictive for activity in other animal tumor models.
10^6 P388 leukemia cells are inoculated ip in B6D2F1 mice. Twenty-four hours later, if the tumor inoculum proves to be free of bacterial contamination (as determined by 24 hours incubation in thioglycollate broth), animals are randomized into groups of 6 and housed in shoebox cages. […] An equal volume of saline or water is added; if the drug comes out of solution an equal volume of Cremophor (polyethoxylated castor oil) is added and then saline or water, as to a concentration such that the desired dose is delivered in 0.5 ml. The final concentration of DMA, ethanol or Cremophor is 10 percent. Dilutions for lower doses are made with saline or water so that there is a decreasing proportion of organic solvents in the vehicle with decreasing dosage. […] Formulations are prepared immediately prior to injection. The Formula (I) and Formula (II) compounds are administered ip on Days 1 through 5 (i.e., treatment is initiated 24 hrs after tumor inoculation). Each experiment includes three groups of 6 animals as untreated controls and animals treated with a positive control, cisplatin, at two dose levels. Animals are weighed as a group on Days 1, 5 and 9 and average weight change (Δwt.) is used as a reflection of toxicity. Each experiment also includes an inoculum titration--groups of 8 mice inoculated ip with 10^5 to 10^0 P388 leukemia cells. The titration is used as a quality control check for the performance of the tumor model. Animals are monitored daily for mortality and experiments are terminated after 45 days. The endpoint is median survival time (MST) and increase in lifespan (ILS) which is the percentage of increase in MST relative to untreated controls.

[3] = system: mammary adenocarcinoma 16/c; assay: sc mammary adenocarcinoma 16/c tumor model; format: in vivo, mice (C3H); settings: for Inhibition: Day 21
Method: In this experiment, the tumor was implanted sc in C3H mice, and the drug was administered ip or iv on an intermittent treatment schedule, i.e., once on days 1, 5, 9, 13 and 17. Tumors were measured 3 weeks after implantation, and activity was assessed by degree of tumor growth inhibition.
*N.P. = Proportion of mice without palpable tumors on Day 21

[4] = system: M5076 reticulum cell sarcoma; settings: 2 mg/kg ip, qD × 10
Method: B6D2F female mice are inoculated sc in the flank with 0.5 ml of a 10% (w:v) brei of M5076 prepared from pooled sc tumors excised at about Day 21 from C57Bl/6 donors. Treatment is initiated one day after tumor implantation, and is continued daily for 10 days. Tumors are measured 21 days after tumor implantation activity is determined by the degree of tumor growth inhibition.

[5] = solubility in 9:1 water:ethanol (HPLC of filtrate)
Method: Such solubility was determined as follows: The compound in question was dissolved or suspended in absolute ethanol (250 mg solid per 1.0 ml ethanol). To the resulting solution or suspension, water (9.0 times the volume of ethanol) was added. This suspension was stirred vigorously for 15 hours, then filtered through a 0.45 μm poly(tetrafluoroethylene) (PTFE) filter. […] The HPLC system was as follows:
Column PLRP-S, 5μm, obtained from Polymer Laboratories, Inc.
Mobile Phase 9:1 acetonitrile:0.1% tetra-n-butylammonium hydrogen sulfate (50° C., 1.0 ml-min-^-1)
Detection Ultraviolet (250 nm)

[6] = Experiment 1, ip, q4D × 5, 8 mg/kg
[7] = Experiment 2, ip, q4D × 5, 6 mg/kg
[8] = Experiment 2, iv, q4D × 5, 12 mg/kg
[9] = Experiment 3, ip, q4D × 5, 8 mg/kg

With `[Au+].[Cl-].c1ccc(P(CCP(c2ccccc2)c2ccccc2)c2ccccc2)cc1.c1ccc(P(CCP(c2ccccc2)c2ccccc2)c2ccccc2)cc1` [Compound No. 1, Bis[1,2-Bis(diphenylphosphino)ethane]Gold(I) Chloride] the pIC50 (B16 melanoma cells) was 5.35, the “effectively killed HT-29 cells following exposure to concentrations” value [1] was under 10 µM and the “MTD (maximally tolerated dose)” value (B16 melanoma; B6D2F1 mice) was 2 mg/kg. For the same molecule, the “ILS (maximum increase in lifespan)” value (B16 melanoma; mice bearing ip B16 melanoma, slash-separated figures are separate experiments) was 50% and 43% and 33% and 28% and 37%, the “MTD (maximally tolerated dose)” value ([2]; B6D2F female mice, ip qDX10) was 2 mg/kg and the “ILS max (maximum increase in lifespan)” value ([2]; mice bearing ip M5076, ip qDX10 at MTD, slash-separated figures are separate experiments) was 56% and 83% and 52% and 47% and 49%. For the same molecule, the “MTD (maximally tolerated dose)” value (P388 leukemia; B6D2F female mice, ip qDX5) was 2 mg/kg, the “ILS max (maximum increase in lifespan)” value (P388 leukemia; mice bearing ip P388 leukemia, ip days 1-5 at MTD, slash-separated figures are separate experiments) was 83 ± 24% and the “Mean Tumor Volume on Day 21” value [3, 6] was 96 ± 143 mm^3. The “N.P. (proportion of mice without palpable tumors on Day 21)” value [3, 6] was 4/7, the Inhibition [3, 6] was 92% and the “Mean Tumor Volume on Day 21” value [3, 7] was 430 ± 291 mm^3. The “N.P. (proportion of mice without palpable tumors on Day 21)” value [3, 7] was 0/8, the Inhibition [3, 7] was 61% and the “Mean Tumor Volume on Day 21” value [3, 8] was 181 ± 163 mm^3. For the same molecule, the “N.P. (proportion of mice without palpable tumors on Day 21)” value [3, 8] was 2/8, the Inhibition [3, 8] was 84% and the “Mean Tumor Volume on Day 21” value [3, 9] was 0 mm^3. For the same molecule, the “N.P. (proportion of mice without palpable tumors on Day 21)” value [3, 9] was 5/5, the Inhibition [3, 9] was 100% and the “% Inhibition of tumor growth (Day 21)” value [4] was 91% and 48%. For the same molecule, the “N.P. (proportion of mice without palpable tumor on Day 21)” value [4] was 2/7 and 1/7, the “solubility in 9:1 water:ethanol (in words)” value ([5]; 9:1 water:ethanol) was “true solution” and the “Solubility in 9:1 Water:Ethanol” value ([5]; stirred 15 hours, 0.45 μm PTFE filter, HPLC) was 0.17 mg/mL. The “solubility in water (in words)” value ([5]; water) was “forms a suspension in water”.
